ChEMBL document CHEMBL1201862, “PubChem BioAssay data set” (2004)
Several values for one entry are separate records, joined by “and”; a condition that tells them apart may be missing. Identical values can stand only once. Activity calls are given as the source filed them.

How the values were obtained:
[1] = suppression of NO production in INS-1E cells – cell-based, Griess absorbance, dry powder, set 3, dose response (AID 488870); assay type: functional; conditions: Rattus norvegicus
INS1 [2] = assay: INS-1E mitochondrial potential loss inhibitors – cell-based, JC-1 fluorescence, dry powder, set 2, dose response (AID 488867); assay type: functional; conditions: Rattus norvegicus
INS1 [3] = assay: beta-cell survival under cytokine stress – INS-1E, ATP luminescence, dry powder, dose response (AID 488844); assay type: functional, cell-based; conditions: Rattus norvegicus
INS1 [4] = assay: INS-1E mitochondrial potential rescue under cytokines – cell-based, JC-1 fluorescence ratio, dry powder, dose response (AID 488931); assay type: functional; conditions: Rattus norvegicus
Nonstructural protein 1 = Nonstructural protein 1 (Influenza A virus, UniProt Q194T2); assay type: functional, Influenza A virus (A/California/07/2009(H1N1))
Sequence of Nonstructural protein 1 (Q194T2 whole entry): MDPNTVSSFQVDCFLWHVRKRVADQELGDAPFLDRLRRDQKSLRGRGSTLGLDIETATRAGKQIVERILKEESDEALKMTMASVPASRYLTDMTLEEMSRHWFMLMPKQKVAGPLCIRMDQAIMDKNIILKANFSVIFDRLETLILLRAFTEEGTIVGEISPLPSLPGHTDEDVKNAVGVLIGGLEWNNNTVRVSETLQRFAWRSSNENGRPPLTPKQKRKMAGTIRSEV

A-375 = assay: proliferation inhibition in MITF-low A375 cells – cell-based, cherry-pick samples, set 2, counter-screen for MITF modulator project, dose response (AID 540335); assay type: functional; conditions: Homo sapiens
HEK293 = assay: EBV LMP1 TES2 canonical NF-kB signalling blockers – cell-based, HEK293, luciferase, cherry-pick, dose response (AID 588343); assay type: functional; conditions: Homo sapiens
[5] = biological target: T1, Microphthalmia-associated transcription factor (Homo sapiens, UniProt O75030); assay: reducers of TRPM1 reporter luminescence, concentration series – cell-based, SK-MEL-5, cherry-picked, set 3, MITF inhibitor project, dose response (AID 493073); assay type: functional;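 further: SK-MEL-5 melanoma cells with luciferase driven by the MITF target TRPM1 promoter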
T1 sequence (O75030 whole entry): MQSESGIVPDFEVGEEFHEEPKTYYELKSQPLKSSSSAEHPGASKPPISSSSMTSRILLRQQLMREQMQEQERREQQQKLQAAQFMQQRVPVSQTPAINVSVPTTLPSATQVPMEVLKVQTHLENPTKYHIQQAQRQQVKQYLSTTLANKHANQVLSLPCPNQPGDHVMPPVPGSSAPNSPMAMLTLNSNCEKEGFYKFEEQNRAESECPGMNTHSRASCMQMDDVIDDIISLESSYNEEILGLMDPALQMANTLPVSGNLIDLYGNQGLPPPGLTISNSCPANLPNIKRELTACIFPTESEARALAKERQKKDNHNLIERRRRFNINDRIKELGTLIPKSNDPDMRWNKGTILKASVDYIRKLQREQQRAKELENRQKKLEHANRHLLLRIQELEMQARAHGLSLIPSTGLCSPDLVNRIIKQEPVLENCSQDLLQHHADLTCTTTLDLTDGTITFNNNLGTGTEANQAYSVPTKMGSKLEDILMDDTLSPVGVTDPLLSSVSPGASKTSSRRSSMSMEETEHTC

[6] = biological target: Latent membrane protein 1 (Human herpesvirus 4 (strain B95-8), UniProt P03230); assay: LMP1 TES1 pathway selectivity over dsRED control – imaging, HEK293T, dual-color eGFP/dsRED, cherry-picks, selectivity assay for LMP1 NF-kB inhibitor project, dose response (AID 588398); assay type: functional, cell-based
Sequence of Latent membrane protein 1 (P03230 whole entry): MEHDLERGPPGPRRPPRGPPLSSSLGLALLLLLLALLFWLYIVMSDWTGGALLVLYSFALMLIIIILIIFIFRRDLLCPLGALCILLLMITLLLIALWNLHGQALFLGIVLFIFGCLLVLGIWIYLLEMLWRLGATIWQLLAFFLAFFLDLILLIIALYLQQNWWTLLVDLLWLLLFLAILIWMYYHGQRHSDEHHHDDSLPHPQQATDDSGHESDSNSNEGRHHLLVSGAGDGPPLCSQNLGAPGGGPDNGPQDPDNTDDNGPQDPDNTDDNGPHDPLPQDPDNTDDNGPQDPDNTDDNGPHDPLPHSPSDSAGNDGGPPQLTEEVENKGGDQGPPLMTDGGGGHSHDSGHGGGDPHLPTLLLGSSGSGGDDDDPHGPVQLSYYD

Vero [7] = assay: cells; assay type: functional; conditions: Chlorocebus sabaeus
CHO = CHO cell viability loss, potency – luminescence, cytotoxicity control for TLR9-MyD88 binding inhibitor project, dose response (AID 588339); assay type: functional, cell-based, hamster; conditions: Cricetulus griseus;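 further: CHO cells stably coexpressing TLR9 and MyD88 fusions from primary screen; compound exposure lasted 48 hours before viability readout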
Vero [8] = assay: cells; assay type: functional, cell-based; conditions: Chlorocebus sabaeus
[9] = biological target: Glucose-6-phosphate 1-dehydrogenase (Homo sapiens, UniProt P11413); assay: inhibition of Homo sapiens G6PD, dose series – biochemical, fluorescence, selectivity assay for P. falciparum G6PD inhibitor project, dose response (AID 504792); assay type: functional
Sequence of Glucose-6-phosphate 1-dehydrogenase (P11413 whole entry): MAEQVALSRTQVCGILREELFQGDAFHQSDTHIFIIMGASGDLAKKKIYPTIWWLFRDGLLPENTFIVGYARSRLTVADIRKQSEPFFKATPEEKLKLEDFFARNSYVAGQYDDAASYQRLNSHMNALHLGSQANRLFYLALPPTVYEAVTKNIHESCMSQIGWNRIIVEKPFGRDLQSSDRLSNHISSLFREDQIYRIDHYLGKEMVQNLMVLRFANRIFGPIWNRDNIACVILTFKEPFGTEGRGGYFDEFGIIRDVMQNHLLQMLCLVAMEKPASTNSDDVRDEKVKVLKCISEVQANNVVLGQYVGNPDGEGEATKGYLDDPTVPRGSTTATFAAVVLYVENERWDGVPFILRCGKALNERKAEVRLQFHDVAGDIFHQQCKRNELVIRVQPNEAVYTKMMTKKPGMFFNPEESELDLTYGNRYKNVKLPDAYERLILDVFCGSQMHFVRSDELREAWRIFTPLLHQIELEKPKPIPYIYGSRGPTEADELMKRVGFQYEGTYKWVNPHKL

[10] = biological target: Heat shock protein HSP 90-alpha (Homo sapiens, UniProt P07900); assay type: functional, organism-based
[11] = biological target: Cyclin-dependent kinase 5/CDK5 activator 1 (Homo sapiens, UniProt Q00535); assay: blockade of human CDK5 activity – biochemical, cherry-picked samples, set 2, dose response (AID 504545)
Sequence of Cyclin-dependent kinase 5/CDK5 activator 1 (Q00535 whole entry, the tested form may be a part): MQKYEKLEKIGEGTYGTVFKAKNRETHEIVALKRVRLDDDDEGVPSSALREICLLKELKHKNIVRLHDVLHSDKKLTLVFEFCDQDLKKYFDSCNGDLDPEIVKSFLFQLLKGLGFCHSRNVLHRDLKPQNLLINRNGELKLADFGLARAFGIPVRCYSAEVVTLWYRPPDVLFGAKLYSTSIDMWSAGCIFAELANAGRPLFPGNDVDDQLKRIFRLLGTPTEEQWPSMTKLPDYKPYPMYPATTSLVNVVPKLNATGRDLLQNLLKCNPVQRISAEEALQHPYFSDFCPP
Sequence of Cyclin-dependent kinase 5/CDK5 activator 1 (Q15078 whole entry, further chain, the tested form may be a part): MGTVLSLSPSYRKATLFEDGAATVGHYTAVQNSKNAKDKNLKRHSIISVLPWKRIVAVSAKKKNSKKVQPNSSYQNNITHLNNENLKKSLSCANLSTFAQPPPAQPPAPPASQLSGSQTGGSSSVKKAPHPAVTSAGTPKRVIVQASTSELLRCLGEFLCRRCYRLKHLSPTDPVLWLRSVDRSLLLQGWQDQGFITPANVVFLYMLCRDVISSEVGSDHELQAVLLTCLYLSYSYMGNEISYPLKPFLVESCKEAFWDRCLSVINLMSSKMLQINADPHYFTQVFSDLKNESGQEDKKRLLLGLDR

[12] = blockers of HIV-1 envelope-mediated cell-cell fusion – cherry-pick, dose response (AID 652057); assay type: functional, cell-based
[13] = HEK-293T viability loss, compound-treated – cell-based, uHTS hits, cytotoxicity control for B/T-cell NF-kB inhibitor project, dose response (AID 489019); assay type: functional;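 further: IC50 reflects cytotoxicity as loss of cell viability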
[14] = luciferase reporter signal suppression in cells – H4 neuroglioma cells, luminescence, dose response (AID 1990); assay type: functional, cell-based
[15] = alpha-synuclein stem-loop luciferase translation blockers – H4 neuroglioma cells, luminescence, confirmation (AID 1988); assay type: functional, cell-based
Paired box protein Pax-8 = Paired box protein Pax-8 (Homo sapiens, UniProt Q06710); assay: PAX8 transcriptional activity inhibition in RMG-I – RMG-I cells, luciferase, cherry-pick, dose response (AID 687027); assay type: functional, cell-based;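 further: luciferase reporter driven by Pax8 target thyroperoxidase promoter measured by SteadyGlo luminescence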
Sequence of Paired box protein Pax-8 (Q06710 whole entry): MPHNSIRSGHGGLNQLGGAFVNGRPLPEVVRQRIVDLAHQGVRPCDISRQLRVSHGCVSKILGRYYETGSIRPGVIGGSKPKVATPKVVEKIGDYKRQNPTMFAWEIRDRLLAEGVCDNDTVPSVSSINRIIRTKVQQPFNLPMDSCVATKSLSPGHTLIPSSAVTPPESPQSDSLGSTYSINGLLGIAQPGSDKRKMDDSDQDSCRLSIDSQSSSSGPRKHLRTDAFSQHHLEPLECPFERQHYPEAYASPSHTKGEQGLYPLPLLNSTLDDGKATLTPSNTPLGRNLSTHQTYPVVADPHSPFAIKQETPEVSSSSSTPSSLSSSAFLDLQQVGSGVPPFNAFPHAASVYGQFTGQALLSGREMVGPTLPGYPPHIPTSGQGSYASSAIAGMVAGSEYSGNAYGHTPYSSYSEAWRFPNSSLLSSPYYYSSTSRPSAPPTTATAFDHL

Jurkat = assay: blockers of NF-kB activation in T cells – Jurkat, luciferase reporter, luminescence, B- and T-cell, dose response (AID 489004); assay type: functional, cell-based; conditions: Homo sapiens;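 further: NF-kB luciferase reporter Jurkat cells stimulated with PMA plus ionomycin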
[16] = Shn3 transcript knock-down in Clone20 cells – cell-based, qPCR, cherry-pick, dose response (AID 743415); assay type: functional
[17] = off-target signal loss in HeLa-CEM21 co-culture – HeLa F-luc CTL cells, cherry-picked, counter-screen for HIV-1 Env fusion inhibitor project, dose response (AID 652040); assay type: functional, cell-based;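 further: potency for signal decrease marking cytotoxic or nonspecific inhibition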
[18] = reduction of Shn3 3'UTR-driven luciferase in osteoblasts – cell-based, Clone20 osteoblasts, firefly luciferase, cherry-picked, dose response (AID 624132); assay type: functional;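 further: firefly luciferase luminescence from reporter carrying the Shn3 3'UTR in osteoblasts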
[19] = HIV-1 AD8 envelope cell-cell fusion blockers – cherry-pick, dose response (AID 652062); assay type: functional, cell-based;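 further: luciferase signal from cell-cell fusion driven by HIV-1 clade B AD8 Env; potency is for inhibitors of fusion seen as a drop in luminescence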
[20] = Luminescence Cell-Based Dose Response HTS to Identify Inhibitors of 5'UTR Stem-Loop Driven Prion Protein mRNA Translation in H4 Neuroglioblastoma Cells. [Related pubchem assays: 1827 (Project Summary), 1813 (Primary HTS)]; assay type: functional
[21] = biological target: T2, Heat shock factor protein 1 (Mus musculus, UniProt P38532); assay: decrease of HSF1-responsive luciferase luminescence – cell-based, NIH3T3, dose retest, confirmation (AID 2382); assay type: functional;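 further: NIH3T3 fibroblasts with HSF1-driven luciferase reporter stressed by proteasome inhibitor MG132; luminescence from HSF1-driven luciferase expression after 8 hours of MG132 stress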
T2 sequence (P38532 whole entry): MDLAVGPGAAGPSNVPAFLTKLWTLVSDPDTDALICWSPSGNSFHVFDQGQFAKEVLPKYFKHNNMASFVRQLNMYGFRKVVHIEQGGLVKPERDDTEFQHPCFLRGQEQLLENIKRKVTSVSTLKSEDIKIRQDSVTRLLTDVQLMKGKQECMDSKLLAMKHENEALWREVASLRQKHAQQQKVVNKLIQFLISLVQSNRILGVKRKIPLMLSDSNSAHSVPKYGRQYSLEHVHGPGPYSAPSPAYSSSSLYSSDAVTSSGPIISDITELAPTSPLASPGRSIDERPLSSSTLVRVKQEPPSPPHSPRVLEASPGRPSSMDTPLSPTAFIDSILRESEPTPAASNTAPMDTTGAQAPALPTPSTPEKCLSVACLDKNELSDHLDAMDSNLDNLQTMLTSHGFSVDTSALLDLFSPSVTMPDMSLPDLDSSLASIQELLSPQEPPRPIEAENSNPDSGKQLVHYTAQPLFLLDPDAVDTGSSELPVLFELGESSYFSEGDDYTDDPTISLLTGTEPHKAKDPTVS

[22] = Shn3 3'UTR reporter signal decrease – cell-based, Clone20 osteoblasts, firefly luciferase, cherry-pick, set 2, Schnurri-3 inhibitor project, dose response (AID 720490); assay type: functional;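 further: actives lower the luminescence signal as inhibitors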
[23] = viability loss in CEM21 cells – cell-based, CellTiter-Glo luminescence, cherry-picked, cytotoxicity control for viral fusion inhibitor project, dose response (AID 652042); assay type: functional;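 further: potency for signal decrease meaning cytotoxicity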
[24] = blockers of HIV-1 ZM109 envelope-driven cell-cell fusion – HeLa effector, CEM target cells, luciferase, cherry-pick, dose response (AID 652058); assay type: functional, cell-based;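 further: luciferase signal from HIV-1 Env mediated cell-cell fusion of effector and target cells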
[25] = biological target: Voltage-gated inwardly rectifying potassium channel KCNH2 (Homo sapiens, UniProt Q12809); conditions: Potency;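 further: confirmatory quantitative high-throughput screen measuring inhibition of hERG channel activity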
Sequence of Voltage-gated inwardly rectifying potassium channel KCNH2 (Q12809 whole entry): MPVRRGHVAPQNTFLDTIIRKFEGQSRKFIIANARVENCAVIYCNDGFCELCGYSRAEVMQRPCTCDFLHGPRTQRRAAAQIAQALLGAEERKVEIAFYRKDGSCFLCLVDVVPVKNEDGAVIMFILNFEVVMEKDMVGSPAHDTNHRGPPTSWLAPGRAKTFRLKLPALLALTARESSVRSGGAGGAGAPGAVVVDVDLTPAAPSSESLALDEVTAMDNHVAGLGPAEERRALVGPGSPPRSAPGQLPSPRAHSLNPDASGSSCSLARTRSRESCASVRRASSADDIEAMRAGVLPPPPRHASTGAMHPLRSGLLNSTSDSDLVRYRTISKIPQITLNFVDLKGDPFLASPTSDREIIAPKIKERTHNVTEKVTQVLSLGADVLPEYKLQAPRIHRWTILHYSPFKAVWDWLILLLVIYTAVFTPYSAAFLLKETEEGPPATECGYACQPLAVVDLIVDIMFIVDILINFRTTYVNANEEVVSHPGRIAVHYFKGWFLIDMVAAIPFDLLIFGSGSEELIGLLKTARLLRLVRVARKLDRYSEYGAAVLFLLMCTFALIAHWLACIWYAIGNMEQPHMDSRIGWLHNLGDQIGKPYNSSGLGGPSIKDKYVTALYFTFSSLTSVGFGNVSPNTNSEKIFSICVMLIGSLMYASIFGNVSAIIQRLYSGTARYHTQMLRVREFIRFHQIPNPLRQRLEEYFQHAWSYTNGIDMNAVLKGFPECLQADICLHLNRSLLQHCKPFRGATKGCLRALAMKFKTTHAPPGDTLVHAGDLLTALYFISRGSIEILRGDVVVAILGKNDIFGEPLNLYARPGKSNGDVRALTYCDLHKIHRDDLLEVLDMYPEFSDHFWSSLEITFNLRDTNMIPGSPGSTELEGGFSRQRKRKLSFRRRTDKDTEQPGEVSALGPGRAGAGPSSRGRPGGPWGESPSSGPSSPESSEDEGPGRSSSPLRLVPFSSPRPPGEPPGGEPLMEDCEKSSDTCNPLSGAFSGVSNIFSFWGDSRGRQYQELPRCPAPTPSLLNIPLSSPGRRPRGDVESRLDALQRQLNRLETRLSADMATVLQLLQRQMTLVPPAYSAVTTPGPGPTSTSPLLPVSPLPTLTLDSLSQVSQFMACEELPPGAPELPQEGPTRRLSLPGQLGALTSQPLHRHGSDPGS

[26] = biological target: Glycogen synthase kinase-3 alpha (Homo sapiens, UniProt P49840); assay: Inhibition of Human GSK-3 alpha Activity Measured in Biochemical System Using Microfluidics - 2063-06_Inhibitor_Dose_DryPowder_Activity. [Related pubchem assays (depositor defined):AID2709]
Sequence of Glycogen synthase kinase-3 alpha (P49840 whole entry): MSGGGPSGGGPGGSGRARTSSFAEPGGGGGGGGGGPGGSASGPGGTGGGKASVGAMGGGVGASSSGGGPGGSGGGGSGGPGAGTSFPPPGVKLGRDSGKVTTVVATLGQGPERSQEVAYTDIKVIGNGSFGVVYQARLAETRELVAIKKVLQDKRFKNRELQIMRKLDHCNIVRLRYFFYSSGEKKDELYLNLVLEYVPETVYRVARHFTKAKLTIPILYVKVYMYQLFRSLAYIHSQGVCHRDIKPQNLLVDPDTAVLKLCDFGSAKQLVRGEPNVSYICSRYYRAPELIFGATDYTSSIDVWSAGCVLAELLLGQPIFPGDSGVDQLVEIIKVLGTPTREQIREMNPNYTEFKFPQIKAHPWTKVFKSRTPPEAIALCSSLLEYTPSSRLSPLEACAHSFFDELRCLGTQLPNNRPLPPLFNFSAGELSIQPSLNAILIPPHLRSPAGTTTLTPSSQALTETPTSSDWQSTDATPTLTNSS

[27] = biological target: Glycogen synthase kinase-3 beta (Homo sapiens, UniProt P49841); assay: Inhibition of Human GSK-3 beta Activity Measured in Biochemical System Using Microfluidics - 2063-05_Inhibitor_Dose_DryPowder_Activity. [Related pubchem assays (depositor defined):AID2709]
Sequence of Glycogen synthase kinase-3 beta (P49841 whole entry): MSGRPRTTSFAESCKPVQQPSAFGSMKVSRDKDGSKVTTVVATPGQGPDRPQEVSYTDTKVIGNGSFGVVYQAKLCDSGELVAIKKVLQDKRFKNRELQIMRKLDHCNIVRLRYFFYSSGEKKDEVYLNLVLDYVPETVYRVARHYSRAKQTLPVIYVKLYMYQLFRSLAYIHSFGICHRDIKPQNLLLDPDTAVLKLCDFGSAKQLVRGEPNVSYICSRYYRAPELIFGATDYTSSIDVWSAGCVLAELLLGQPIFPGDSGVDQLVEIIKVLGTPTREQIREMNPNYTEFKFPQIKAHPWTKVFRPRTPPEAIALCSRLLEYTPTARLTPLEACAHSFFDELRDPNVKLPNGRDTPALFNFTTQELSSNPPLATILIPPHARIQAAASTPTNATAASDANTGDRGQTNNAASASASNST

C[C@@H]1CN([C@@H](C)CO)C(=O)c2cccc(NC(=O)Nc3cccc4ccccc34)c2O[C@H]1CN(C)S(=O)(=O)c1ccc2ncsc2c1
AC50 [1]: 34600 nM (active) | AC50 (INS1 [2]): 38800 nM (active) | AC50 (INS1 [3]): 24900 nM (active) | AC50 (INS1 [4]): 176000 nM (active)

CC(=NNC(=S)N1CCN(c2ccccn2)CC1)c1nccs1
IC50 (Nonstructural protein 1): 3380 nM (active) | AC50 (A-375): 34700 nM (active) | AC50 (HEK293): 4440 nM (active) | AC50 [5]: 681 nM (active) | AC50 [6]: 5180 nM (active) | CC50 (Vero [7]): 8980 nM (active) | IC50 (CHO): 110 nM (active) | IC50 (Vero [8]): > 25000 nM (active) | IC50 [9]: > 80000 nM (inactive) | AC50 [10]: 2180 nM (active)

OCCCNc1nccc(-c2cc(Nc3cccc(Cl)c3)ncn2)n1
AC50 [11]: 2960 nM (active) | AC50 [12]: 417 nM (active) | IC50 [13]: > 80000 nM (inactive) | EC50 [14]: 2330 nM (active) | EC50 [15]: 1860 nM (active) | AC50 (Paired box protein Pax-8): 2700 nM (active) | IC50 (Jurkat): 320 nM (active) | AC50 [16]: 5080 nM (active) | AC50 [6]: 535 nM (active) | AC50 [17]: 1350 nM (active) | AC50 [18]: 2610 nM (active) | AC50 [19]: 569 nM (active) | EC50 [20]: 5300 nM (active) | EC50 [21]: 3800 nM (active) | AC50 [22]: 2710 nM (active) | AC50 [23]: 418 nM (active) | AC50 [24]: < 260 nM (active)

ClC(Cl)=C(c1ccc(Cl)cc1)c1ccc(Cl)cc1 [DICHLORODIPHENYLDICHLOROETHYLENE]
AC50 [25]: 15.8 µM (inconclusive) and 20 µM (inconclusive)

O/N=C/c1cn(-c2ccccc2)nc1-c1cccnc1
AC50 [26]: 828 nM (active) | AC50 [27]: 246 nM (active)
